In PubChem BioAssay AID652109 (The Scripps Research Institute Molecular Screening Center, 2013):
Calls of active or inactive are those of the source. How the calls were made is not given here.

Biological target: Serine/threonine-protein phosphatase PP1-alpha catalytic subunit (Homo sapiens) (UniProt P62136)
Experiment: inhibition of PP1alpha catalytic activity – biochemical, OMFP substrate, fluorescence, late-stage follow-up (AID 652109)
Details: PP1 dephosphorylation of OMFP, at 6.7 µM, stronger effect = higher value

Chain of Serine/threonine-protein phosphatase PP1-alpha catalytic subunit (Homo sapiens) (P62136 whole entry, looked up): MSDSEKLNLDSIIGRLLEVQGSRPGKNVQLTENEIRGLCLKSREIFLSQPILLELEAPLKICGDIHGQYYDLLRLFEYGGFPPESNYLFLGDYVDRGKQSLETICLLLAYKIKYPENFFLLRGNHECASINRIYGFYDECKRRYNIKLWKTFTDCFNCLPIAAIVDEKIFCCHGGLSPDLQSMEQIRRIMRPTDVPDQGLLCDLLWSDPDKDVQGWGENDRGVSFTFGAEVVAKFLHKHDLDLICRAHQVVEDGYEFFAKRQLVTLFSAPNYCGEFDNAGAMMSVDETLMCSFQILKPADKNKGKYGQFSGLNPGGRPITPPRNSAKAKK

Compound | inhibition
Cc1ccc(C(=O)NC2(O)C(=O)c3ccccc3C2=O)cc1C | -0.875% (inactive)
O=C(NC1(O)C(=O)c2ccccc2C1=O)c1ccccc1 | -2.88% (inactive)
Oc1cccc(/C=N/Nc2cc(N3CCCC3)nc(N3CCCC3)n2)c1 | 23.5% (inactive)
Nc1nc(-c2ccccn2)nc(N)c1Cc1ccc(Cl)cc1Cl | 65.9%
CCCN(CC1CC1)c1nc(N)c2c(N)nc(OC)cc2c1C#N | 3.83% (inactive)
O=c1[nH]c(Nc2ccccc2)cc2ccccc12 | 9.24% (inactive)
COc1ccc(Cn2c(N)c(C(=O)NCc3ccco3)c3nc4ccccc4nc32)cc1OC | 3.29% (inactive)
COc1cnc(-c2ccccn2)nc1Sc1ccccc1Cl | 68.5%
O=C1CCCC2=C1C1(O)C(=O)c3ccccc3C1(O)O2 (centres undefined) | 3.09% (inactive)
CCOC(=O)C1=C(C)OC2(O)c3ccccc3C(=O)C12O (centres undefined) | 18.6% (inactive)
COc1cnc(-c2ccccn2)nc1Sc1ccc(F)cc1 | 52.5%
CCOC(=O)c1sc(N2C(=O)C(O)=C(C(=O)c3ccco3)C2c2cccc([N+](=O)[O-])c2)nc1C (centres undefined) | 32.7%
COc1ccc(Sc2nc(-c3ccccn3)ncc2OC)cc1 | 71.2%
CCOC(=O)c1sc2nc3c(SCC(=O)O)cc(C(=O)c4cc(F)ccc4O)cn3c(=O)c2c1C | 67.8%
CN1CCN(C(c2ccccn2)c2cc(Cl)c3cccnc3c2O)CC1 (centres undefined) | 74%
CCCCn1c(NC(=O)c2ccco2)c(C(=O)OCC)c2nc3ccccc3nc21 | -4% (inactive)
Cc1nnc(NC(=O)C2C3C=CC(O3)C2C(=O)O)s1 (centres undefined) | 8.42% (inactive)
c1ccc(-c2nccc(-c3ccc(-n4cnc5ccccc54)cc3)n2)nc1 | 62.4%
COc1cnc(-c2ccccn2)nc1Sc1cccc(Cl)c1 | 67.6%
O=C(O)C1C2CCC(O2)C1C(=O)NC1CCCCC1 (centres undefined) | 25% (inactive)
Cc1ccc(C(=O)NNc2cc(N3CCCC3)nc(N3CCCC3)n2)cc1 | 3.05% (inactive)
Nc1cc2nsnc2cc1Br | -4.44% (inactive)

Compound | inhibition
Cc1ccc(-n2nc(C(=O)O)cc2-c2ccc(Cl)cc2)cc1 | 56%
COc1cnc(-c2ccccn2)nc1Sc1ccccc1 | 60.7%
COc1cnc(-c2ccccn2)nc1Oc1cccc(Cl)c1 | 49.5%
O=C(O)c1cc(-c2ccc(Cl)cc2)n(-c2cccc(Cl)c2)n1 | 57.5%
CCOC(=O)c1cnc(-n2cc(C)cn2)nc1NCc1ccc2c(c1)OCO2 | 12.9% (inactive)
CCCCN(CC)c1nc(N)c2c(N)nc(OCC)cc2c1C#N | 3.48% (inactive)
CCOC(=O)c1cnc(-n2nc(C)cc2C)nc1NCc1ccccc1 | 58.3%
COc1ccc(NC(=S)Nc2ccc3nsnc3c2)cc1 | 2.7% (inactive)
COc1ccc(OCCCC(=O)Nc2nc(-c3ccccn3)cs2)cc1 | 33.3%
COc1cnc(-c2ccccn2)nc1Sc1ccc(C)cc1 | 65.8%
COc1ccc(NC(=O)C2C3CCC(O3)C2C(=O)O)c(OC)c1 (centres undefined) | 34.9%
O=C(Nc1nc(-c2ccccn2)cs1)C1CC(=O)N(c2ccc3c(c2)OCCO3)C1 (centres undefined) | 49.4%
N#Cc1c(-c2ccc(Cl)cc2)cc(-c2cccs2)nc1SCC(=O)O | 46.6%
COc1ccc(CN2C(=O)Cc3c2nc(N)c2c(N)nc(N4CCCCC4)c(C#N)c32)cc1 | 6.16% (inactive)
COc1ccc(Cl)cc1C(=O)Nc1cccc(-c2ccc3nncn3n2)c1 | 60.4%
COc1ccc2c(Cl)c(C(=O)N/N=C/c3ccc4c(c3)OCO4)sc2c1 | 23% (inactive)
Oc1ccc(/C=N/Nc2cc(N3CCOCC3)nc(N3CCOCC3)n2)c(O)c1 | 5.24% (inactive)
CC(=O)C(C(C)=O)C1(O)C(=O)c2ccccc2C1=O | 0.756% (inactive)
COc1cc(Br)c(C(=O)c2nccc3cc(OC)c(OC)cc23)cc1OC | -4.95% (inactive)
O=C(O)c1cc(-c2ccc(Cl)c(Cl)c2)n(-c2ccc(F)cc2)n1 | 57.1%
CCOC(=O)c1cnc(-n2nc(C)cc2C)nc1NC(C)c1ccccc1 (centres undefined) | 68.8%
Cc1cc(C)c(S(=O)(=O)/N=C2\C=C(Sc3ncn[nH]3)C(=O)c3ccccc32)cc1C | 5.9% (inactive)

Compound | inhibition
c1ccc(Nc2nc(-c3ccccn3)cs2)cc1 | 63.7%
COc1ccccc1Sc1nc(-c2ccccn2)ncc1OC | 65.9%
CCOC(=O)c1cnc(-n2nc(C)cc2C)nc1NC1CCCCC1 | 57.6%
CCn1c2ccccc2c2cc(NC(=O)COC(=O)c3ccc(NC(=O)CC#N)cc3)ccc21 | 47.2%
CC(C)(CS(=O)(=O)[O-])NC(=O)CC[N+](C)(C)CCO | 49.4%
N#Cc1c(N2CCCC(O)C2)nc(N)c2c(N)nc3c(c12)CC(=O)N3C12CC3CC(CC(C3)C1)C2 (centres undefined) | 8.91% (inactive)
O=C(NC1(O)C(=O)c2ccccc2C1=O)c1ccc(C(F)(F)F)cc1 | 6.8% (inactive)
O=C(O)c1cc(-c2ccc(Cl)c(Cl)c2)n(-c2ccccc2)n1 | 60.5%
COc1cnc(-c2ccccn2)nc1Sc1ccc(Cl)cc1 | 53.2%
CCOC(=O)c1cnc(-n2nc(C)cc2C)nc1NCCc1ccccc1 | 65.2%
O=C(NC1(O)C(=O)c2ccccc2C1=O)c1c(Cl)cccc1Cl | 0.361% (inactive)
COc1cnc(-c2ccccn2)nc1Oc1cccc(C(F)(F)F)c1 | -4.5% (inactive)
CCOc1ccc(NC(=S)Nc2ccc3nsnc3c2)cc1 | 4.8% (inactive)
COc1ccc(C(=O)c2nccc3cc(OC)c(OC)cc23)cc1OC | 0.984% (inactive)
O=S(=O)(Cc1cc(NCc2ccccc2)nc(-c2ccccn2)n1)c1ccccc1 | 44.6%
CCOC(=O)c1nn(-c2ccc(C)cc2)c(=O)c2c(N)scc12 | 6.08% (inactive)
O=C1Nc2ccccc2N2CCCC12 (centres undefined) | -0.206% (inactive)
Oc1ccccc1/C=N/Nc1cc(N2CCCC2)nc(N2CCCC2)n1 | 4.78% (inactive)
Clc1ccc(-n2nnnc2-c2cnc(-c3ccccn3)nc2-c2cccs2)cc1 | 67.4%
Cc1[nH]n(-c2ccccc2)c(=O)c1C(c1ccc([N+](=O)[O-])cc1)c1c(C)[nH]n(-c2ccccc2)c1=O | -0.696% (inactive)
